Where “and” joins values, the source holds several entries; their conditions need not be identical. Equal entries are not always repeated. Where two headings read alike, the source gives them in different places.
What was measured:
[1] = snar bond
[2] = biological target: T1, CFTR-mediated chloride transport (Homo sapiens, UniProt P13569); assay: Corrector Assay A - membrane potential dye assay (enteroid cells); conditions: for Corrector Assay A % activity: % of chloride transport of triple combination control (1 μM (14S)-dispiro macrocycle + 3 μM tezacaftor + 300 nM ivacaftor); for EC50: read-out: Corrector Assay A EC50, human intestinal enteroid cells, 18-24 h incubation, acute 10 μM forskolin + 300 nM ivacaftor
[3] = biological target: T1, CFTR-mediated chloride transport; assay: Corrector Assay B - membrane potential dye assay (enteroid cells); conditions: for Corrector Assay B % activity: % of chloride transport of triple combination control (3 μM Compound A + 3 μM tezacaftor + 300 nM ivacaftor); for EC50: read-out: Corrector Assay B EC50, human intestinal enteroid cells, 18-24 h incubation, acute 10 μM forskolin + 300 nM ivacaftor;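 for all read-outs here: methyl oxonol membrane potential fluorescence followed over 15 min after switching to chloride-free buffer with forskolin, 100 µM IBMX and ivacaftor, in presence of CaCC blockers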

Row | Compound | Corrector Assay A % activity [2] | EC50 [2] [nM] | Corrector Assay B % activity [3] | other results
1 | CC(C)C1CC[C@@H]2CN(c3nc(-n4ccc(OCCC5C6(CC6)C56CC6)n4)ccc3C(=O)NS(=O)(=O)c3cccc(n3)N1)C(C)(C)C2 (single isomer, unassigned; diastereomer 1) |  |  |  | ring closure, yield after HPLC ([1]; from CC(C)C(CC[C@H]1CNC(C)(C)C1)Nc1cccc(S(=O)(=O)NC(=O)c2ccc(-n3ccc(OCCC4C5(CC5)C45CC5)n3)nc2Cl)n1, 15-membered ring, K2CO3, NMP, 20.9 mM, 165.0 °C, 16.0 h): 68%
2 | CC1(C)CC2CC(c3ccccc3)CNc3cccc(n3)S(=O)(=O)NC(=O)c3ccc(-n4ccc(OCCC5(C(F)(F)F)CC5)n4)nc3N1C2 (stereo not shown) |  |  |  | ring closure, yield after HPLC ([1]; from CC(C)(C)OC(=O)N1CC(CC(CNc2cccc(S(=O)(=O)NC(=O)c3ccc(-n4ccc(OCCC5(C(F)(F)F)CC5)n4)nc3Cl)n2)c2ccccc2)CC1(C)C, 15-membered ring, K2CO3/4A MS, DMSO, 44.7 mM, 140.0 °C, 2 steps): 60%
3 | CC(C)COc1cc(F)cc(-c2ccc3c(n2)N2C[C@@H](CCC(c4ccccn4)Nc4cccc(n4)S(=O)(=O)NC3=O)CC2(C)C)c1 (stereo partly shown) |  |  |  | ring closure, yield after HPLC ([1]; from CC(C)COc1cc(F)cc(-c2ccc(C(=O)NS(=O)(=O)c3cccc(NC(CC[C@@H]4CN(C(=O)OC(C)(C)C)C(C)(C)C4)c4ccccn4)n3)c(Cl)n2)c1, 15-membered ring, K2CO3, NMP, 38.2 mM, 140.0 °C, 2 steps): 18% and 31%
4 | CC1(C)C[C@@H]2CCCNc3cccc(n3)S(=O)(=O)NC(=O)c3cc(Cc4ccccc4)c(F)nc3N1C2 |  |  |  | ring closure, yield after HPLC ([1]; from CC1(C)C[C@H](CCCNc2cccc(S(=O)(=O)NC(=O)c3cc(Cc4ccccc4)c(F)nc3F)n2)CN1, 15-membered ring, K2CO3, NMP, 71.8 mM, 160.0 °C, 21.5 h, 2 steps): 33%
5 | CCCC1(C)CC2CCCNc3cccc(n3)S(=O)(=O)NC(=O)c3ccc(-n4ccc(OCCC5(C(F)(F)F)CC5)n4)nc3N1C2 (stereo not shown) |  |  |  | ring closure, yield after HPLC ([1]; from CCCC1(C)CC(CCCNc2cccc(S(=O)(=O)NC(=O)c3ccc(-n4ccc(OCCC5(C(F)(F)F)CC5)n4)nc3Cl)n2)CN1, 15-membered ring, K2CO3, NMP, 20.9 mM, 150.0 °C, 16.0 h): 28%
6 | CC(C)(C)c1ccc2c(n1)N1C[C@@H](CCC(C3=CCN(C(=O)OCc4ccccc4)CC3)Nc3cccc(n3)S(=O)(=O)NC2=O)CC1(C)C (stereo partly shown) |  |  |  | ring closure, yield after HPLC ([1]; from CC1(C)C[C@H](CCC(Nc2cccc(S(=O)(=O)NC(=O)c3ccc(C(C)(C)C)nc3F)n2)C2=CCN(C(=O)OCc3ccccc3)CC2)CN1, 15-membered ring, K2CO3/3A MS, NMP, 29.7 mM, 155.0 °C, 18.0 h, 2 steps): 89%
7 | CC1(C)C[C@@H]2CCC(c3ccc(C(=O)O)cc3)Nc3cccc(n3)S(=O)(=O)NC(=O)c3ccc(-n4ccc(OCCC5(C(F)(F)F)CC5)n4)nc3N1C2 (stereo partly shown) |  |  |  | ring closure, yield after HPLC ([1]; from CC1(C)C[C@H](CCC(Nc2cccc(S(=O)(=O)NC(=O)c3ccc(-n4ccc(OCCC5(C(F)(F)F)CC5)n4)nc3Cl)n2)c2ccc(C(=O)O)cc2)CN1, 15-membered ring, K2CO3, NMP, 19.4 mM, 150.0 °C, 18.0 h): 40%
8 | CC(C)(C)c1ccc2c(n1)N1C[C@@H](CCC(C3CCN(C(=O)OCc4ccccc4)CC3)Nc3cccc(n3)S(=O)(=O)NC2=O)CC1(C)C (stereo partly shown) |  |  |  | ring closure, yield after HPLC ([1]; from CC1(C)C[C@H](CCC(Nc2cccc(S(=O)(=O)NC(=O)c3ccc(C(C)(C)C)nc3F)n2)C2CCN(C(=O)OCc3ccccc3)CC2)CN1, 15-membered ring, K2CO3, NMP, 42.0 mM, 140.0 °C, 16.0 h): 58%
9 | CC(C)(C)c1ccc2c(n1)N1C[C@@H](CCC(c3cc(Cl)ccn3)Nc3cccc(n3)S(=O)(=O)NC2=O)CC1(C)C (stereo partly shown) |  |  |  | ring closure, yield after HPLC ([1]; from CC(C)(C)OC(=O)N1C[C@@H](CCC(Nc2cccc(S(=O)(=O)NC(=O)c3ccc(C(C)(C)C)nc3F)n2)c2cc(Cl)ccn2)CC1(C)C, 15-membered ring, K2CO3, NMP, 142.0 mM, 140.0 °C, 2 steps): 43%
10 | CC(C)(C)c1ccc2c(n1)N1CC(CCN(c3ccccc3)C(=O)c3cccc(c3)S(=O)(=O)NC2=O)CC1(C)C (stereo not shown) |  |  |  | ring closure, yield after HPLC ([1]; from CC1(C)CC(CCN(C(=O)c2cccc(S(=O)(=O)NC(=O)c3ccc(C(C)(C)C)nc3Cl)c2)c2ccccc2)CN1, 15-membered ring, K2CO3, then CsF/3A MS, NMP, 24.6 mM, 180.0 °C, 88.0 h): 29%
11 | CC(C)(C)c1ccc2c(n1)N1CC(CCCOc3cccc(c3)S(=O)(=O)NC2=O)CC1(C)C (stereo not shown) |  |  |  | ring closure, yield after HPLC ([1]; from CC1(C)CC(CCCOc2cccc(S(=O)(=O)NC(=O)c3ccc(C(C)(C)C)nc3F)c2)CN1, 15-membered ring, K2CO3, NMP, 27.5 mM, 150.0 °C, 16.0 h): 41%
12 | CC(C)(C)c1ccc2c(n1)N1CC(CC1(C)C)OCCNc1cccc(n1)S(=O)(=O)NC2=O (stereo not shown) |  |  |  | ring closure, yield after HPLC ([1]; from CC(C)(C)OC(=O)N1CC(OCCNc2cccc(S(=O)(=O)NC(=O)c3ccc(C(C)(C)C)nc3F)n2)CC1(C)C, 15-membered ring, K2CO3, NMP, 73.3 mM, 160.0 °C, 2 steps): 61%
13 | CC(C)(C)c1ccc2c(n1)N1C[C@@H](CCC(c3ccc(Cl)cn3)Nc3cccc(n3)S(=O)(=O)NC2=O)CC1(C)C (single isomer, unassigned; diastereomer 1) |  |  |  | ring closure, yield after HPLC ([1]; from CC1(C)C[C@H](CCC(Nc2cccc(S(=O)(=O)NC(=O)c3ccc(C(C)(C)C)nc3F)n2)c2ccc(Cl)cn2)CN1, 15-membered ring, K2CO3/3A MS, NMP, 78.4 mM, 150.0 °C, 4.0 h, 2 steps): 39%
14 | CC1(C)CC2CC(c3ccccc3)CNc3cccc(n3)S(=O)(=O)NC(=O)c3ccc(-n4ccc(OCCC5(C(F)(F)F)CC5)n4)nc3N1C2 (single isomer, unassigned) [Compound 391, 12,12-dimethyl-16-phenyl-8-(3-{2-[1-(trifluoromethyl)cyclopropyl]ethoxy}-1H-pyrazol-1-yl)-2λ^6-thia-3,9,11,18,23-pentaazatetracyclo[17.3.1.111,14.05,10]tetracosa-1(22),5,7,9,19(23),20-hexaene-2,2,4-trione] | +++ (+++ is >60%) | < 1000 | +++ (+++ is >60%) | 
15 | CC(C)(C)OC(=O)N1C[C@@H](CCC(c2ccccc2)n2ccc(S(=O)(=O)NC(=O)c3ccc(C(C)(C)C)nc3Cl)n2)CC1(C)C (stereo partly shown) |  |  |  | ring closure, yield after HPLC ([1]; the molecule shown is the open-chain precursor, 14-membered ring, K2CO3, NMP, 74.5 mM, 140.0 °C, 2 steps): 13%
16 | CCCC1(C)CC2CCCNc3cccc(n3)S(=O)(=O)NC(=O)c3ccc(-n4ccc(OCCC5(C(F)(F)F)CC5)n4)nc3N1C2 (single isomer, unassigned) [Compound 367, 12-methyl-12-propyl-8-(3-{2-[1-(trifluoromethyl)cyclopropyl]ethoxy}-1H-pyrazol-1-yl)-2λ^6-thia-3,9,11,18,23-pentaazatetracyclo[17.3.1.111,14.05,10]tetracosa-1(22),5,7,9,19(23),20-hexaene-2,2,4-trione] | +++ (+++ is >60%) | < 1000 | ++ (++ is 30-60%) | EC50 [3]: < 1000 nM
17 | CC1(C)CC2CCC(c3ccccc3)Nc3cccc(n3)S(=O)(=O)NC(=O)c3ccc(-n4ccc(OCCC5(C(F)(F)F)CC5)n4)nc3N1C2 (single isomer, unassigned) [Compound 384, 12,12-Dimethyl-17-phenyl-8-(3-{2-[1-(trifluoromethyl)cyclopropyl]ethoxy}-1H-pyrazol-1-yl)-2λ^6-thia-3,9,11,18,23-pentaazatetracyclo[17.3.1.111,14.05,10]tetracosa-1(22),5,7,9,19(23),20-hexaene-2,2,4-trione] | + (+ is <30%) | < 1000 | ++ (++ is 30-60%) | 
18 | CC(C)(C)c1ccc2c(n1)N1C[C@@H](CCC(c3ccc(C(=O)O)cc3)Nc3cccc(n3)S(=O)(=O)NC2=O)CC1(C)C (stereo partly shown) |  |  |  | ring closure, yield after HPLC ([1]; from CC1(C)C[C@H](CCC(Nc2cccc(S(=O)(=O)NC(=O)c3ccc(C(C)(C)C)nc3Cl)n2)c2ccc(C(=O)O)cc2)CN1, 15-membered ring, K2CO3, NMP, 26.5 mM, 165.0 °C, 48.0 h): 24%
19 | CC1(C)C[C@@H]2CCC(c3ccccc3)Nc3cccc(n3)S(=O)(=O)NC(=O)c3ccc(-n4ccc(OCCC5C6(CC6)C56CC6)n4)nc3N1C2 (single isomer, unassigned) [Compound 363] | +++ (+++ is >60%) | < 1000 | +++ (+++ is >60%) | EC50 [3]: < 1000 nM
20 | CC(C)(C)c1ccc2c(n1)N1C[C@@H](CC[C@@H](c3ccccc3)Nc3cccc(n3)S(=O)(=O)NC2=O)CC1(C)C (single isomer, unassigned) [Compound 294] | +++ (+++ is >60%) | < 1000 | +++ (+++ is >60%) | EC50 [3]: < 1000 nM
21 | CC1(C)CC2CN1c1nc(-n3ccc(OCCC4(C(F)(F)F)CC4)n3)ccc1C(=O)NS(=O)(=O)c1cccc(n1)NCCC2c1ccccc1 (single isomer, unassigned) [Compound 385, 12,12-dimethyl-15-phenyl-8-(3-{2-[1-(trifluoromethyl)cyclopropyl]ethoxy}-1H-pyrazol-1-yl)-2λ^6-thia-3,9,11,18,23-pentaazatetracyclo[17.3.1.111,14.05,10]tetracosa-1(22),5,7,9,19(23),20-hexaene-2,2,4-trione] | ++ (++ is 30-60%) | < 1000 | ++ (++ is 30-60%) | EC50 [3]: < 1000 nM
22 | CC(C)(C)c1ccc2c(n1)N1C[C@@H](CCC(c3cncnc3)Nc3cccc(n3)S(=O)(=O)NC2=O)CC1(C)C (single isomer, unassigned) [Compound 297] | +++ (+++ is >60%) | < 1000 | +++ (+++ is >60%) | EC50 [3]: < 1000 nM
23 | CC(C)(C)c1ccc2c(n1)N1C[C@@H](CC[C@@H](c3ccccc3)Nc3cccc(n3)S(=O)(=O)NC2=O)CC1(C)C (single isomer, unassigned) [Compound 295] | ++ (++ is 30-60%) | < 1000 | +++ (+++ is >60%) | EC50 [3]: < 1000 nM
24 | CC1(C)C[C@@H]2CCC(c3ccccn3)Nc3cccc(n3)S(=O)(=O)NC(=O)c3ccc(-n4ccc(OCCC5(C(F)(F)F)CC5)n4)nc3N1C2 (single isomer, unassigned) [Compound 361] | +++ (+++ is >60%) | < 1000 | +++ (+++ is >60%) | EC50 [3]: < 1000 nM

Source: US20220313698A1, “MODULATORS OF CYSTIC FIBROSIS TRANSMEMBRANE CONDUCTANCE REGULATOR” (Vertex Pharmaceuticals Incorporated, priority 2019, published 2022)
